These results are taken from patent US20080119530A1, “Method for treatment and prevention of ultraviolet light induced skin pathologies” (priority 2006, published 2008).

For assay [1], the system named is skin. The experiment in a line: Cell cycle analysis of skin sections by flow cytometry. The note with it: inhibition prior to UV irradiation. Format: in vivo, mouse. As for the experimental part: Flow cytometry. […] sections from paraffin embedded blocks were dewaxed with xylene, rehydrated and digested in PBS containing 0.5% pepsin (Sigma, St. Louis, Mo.). The nuclei were isolated by filtration and suspended in Vindelov's (56) solution reagent (3.5 mM tris base, pH 7.6, 10 mM NaCl, 10 μg/ml Ribonuclease A, 75 μg/ml PI, 1.0 μl/ml IPEGAL; (71)). At least 10,000 events from each sample were analyzed for flow cytometry on a FACSCalibur flow cytometer (Becton Dickinson, Franklin Lakes, N.J.). Data were acquired in the FL2 channel with a […] filter. Fluorescence signals were pulse processed and single cells identified using a FL2W versus FL2A plot. A histogram of FL2A was plotted for single cells and cell cycle distributions determined using ModFit LT 3.1 software (Verity Software House, Topsham, Me.).
(§1) Cell cycle. […] For in vitro analysis, keratinocytes were resuspended, fixed in 70% ethanol, resuspended in Vindelov's solution (3.5 mM Tris base, pH 7.6, 10 mM NaCl, 10 μg/ml Ribonuclease A, 75 μg/ml propidium iodide, 1.01l/ml IPEGAL), and analyzed on a FACSCalibur flow cytometer (Becton Dickinson, Franklin Lakes, N.J.). Cell cycle distributions were determined using ModFit LT 3.1 software (Verity Software House, Topsham, Me.). […]
In general terms: Flow cytometry measures light scatter and fluorescence of single cells or particles in a stream.

For assay [2], the system named is primary keratinocytes. The experiment in a line: BrdU incorporation (DNA synthesis) in cultured primary keratinocytes. In kind it is cell-based, mouse.
Excerpt: Cell culture. […] Keratinocytes were transfected with Erbb2-targeted siRNA (32), Stealth RNAi Negative Control LO GC (Invitrogen, Carlsbad, Calif.), Cy3-conjugated Label IT RNAi Delivery Control (Mirus, Madison, Wis.) or sham transfection with TransIT-siQUEST Transfection Reagent (Mirus, Madison, Wis.). Plasmids with Cdc25a (Hassepass et al. 2003a) and EGFP (enhanced green fluorescent protein) cDNA were cotransfected with Lipofectamine Transfection Reagent (Invitrogen, Carlsbad, Calif.). Transfection efficiency was quantified by determining the proportion of the cells that incorporated the fluorescent Cy3-conjugated siRNA or GFP one day post-transfection. […]
as §1
Proliferation and apoptosis assays. Proliferation, survival and apoptosis were quantified in three replicate experiments. BrdU uptake was measured by a chemiluminescenit BrdU Cell Proliferation ELISA (Roche, Germany). […] MUH fluorescence from wells lacking cells was subtracted from all samples. […]
In general terms: Uptake of a labelled nucleoside into DNA is a usual measure of proliferation.

With `COc1cc(/C=C(\C#N)C(N)=O)cc(CSc2nc3ccccc3s2)c1O` [AG825], in assay [1], the “S-phase cells in skin” value is “increased”. Further, the BrdU incorporation result in assay [2] (by 12 h after UV irradiation) is reported as “reduced to nearly zero”; in assay [2] (sham-irradiated keratinocytes), “significantly reduced”.
